Measured values taken from US20090176888A1, “COMPOSITION COMPRISING PHYTOSPHINGOSINE OR DERIVATIVE THEREOF” (KOREA INSTITUTE OF RADIOLOGICAL & MEDICAL SCIENCES, priority 2003, published 2009).

Legend:
Ames test = assay: Ames test
Text: (§1) Royal Gist-Brocades N.V. (Netherlands) was asked to perform tests for acute oral toxicity and dermal irritation, and Ames tests of phytosphingosine and derivatives thereof.

[1] = tested on: blood cancer cells (Jurkat); assay: Apoptosis test (Sub G1, propidium iodide, flow cytometry); assay type: cell-based, human
Description: Cancer cells as used in the experiment were human lung cancer cells (NCI-H460, Korean Cell Line Bank), human breast cancer cells (MDA-MB-231, American Type Culture Collection (ATCC)), human uterine cervical cancer cells (HeLa, Korean Cell Line Bank), and blood cancer cells (Jurkat, ATCC). These cancer cells were cultured in RPMI 1640 media containing 10% FBS, penicillin, and streptomycin (GIBCO BRL). The apoptosis tests were carried out at human lung cancer cells, breast cancer cells, uterine cervical cancer cells, and blood cancer cells as follows: Phytosphingosine or a derivative thereof was dissolved in DMSO. Samples of the resultant solution of different concentration levels (1, 2, 5, 10, 15, 20 μg/ml) were prepared. According to the following treatment schedule, phytosphingosine treated cancer cells were cultured, washed with PBS (phosphate buffered saline), and fixed with 70% ethanol. The fixed cells were again washed with PBS, suspended in PBS, and 1 mg/ml of RNase was added thereto. Then, DNA was stained with 50 μg/ml of propidium iodide fluorescent dye and the change in the Sub G1 was analyzed by flow cytometry (Becton DICKINSON). The Sub G1, a marker of apoptotic cell death, means DNA distribution lower than that in the G1 phase of cell cycle. (1-1) In order to determine an anticancer effect of phytosphingosine, 5 ml of 10 μg/ml of phytosphingosine was added to respective dishes containing lung cancer cells, breast cancer cells, uterine cervical cancer cells, and blood cancer cells. (1-2) In order to examine a correlation of an anticancer effect with the phytosphingosine concentration and post-treatment culture time, each 5 ml of 2, 5, 10, and 15 μg/ml of phytosphingosine was added to respective human uterine cervical cancer cell-containing dishes and human breast cancer cell-containing dishes. In addition, each 5 ml of 5, 10, 15, and 20 μg/ml of phytosphingosine was added to respective human lung cancer cell-containing dishes, and each 5 ml of 1, 5, 10, and 20 μg/ml of phytosphingosine was added to respective human blood cancer cell-containing dishes.

[2] = Oral or transdermal toxicity tests; conditions: rat, in vivo, other: oral or transdermal, rats
[3] = tested on: caspases in human blood cancer cells; assay: Western blotting of caspase-3, caspase-8, caspase-9 and PARP; assay type: cell-based; conditions: 5 and 10 μg/ml phytosphingosine, FIG. 10
Description: (§2) Human lung cancer cells and blood cancer cells were cultured under the same condition as in the apoptosis test and were treated with 10 ml of phytosphingosine (10 μg/ml of phytosphingosine for lung cancer cells, and 5 μg/ml and 10 μg/ml of phytosphingosine for blood cancer cells). Then, the analysis of mitochondrial membrane potential and western blotting was carried out. Phytosphingosine-treated human lung cancer cells and blood cancer cells were dissolved in a protease inhibitor-containing lysis buffer (40 mM Tris-Cl (pH 8.0), 120 mM NaCl, 0.1% […]) and centrifuged to give a protein extract. Pure proteins were isolated from the protein extract using SDS-PAGE and transferred to a nitrocellulose membrane. The protein-bound nitrocellulose membrane was blocked with skim milk and incubated with as caspase-3, caspase-8, caspase-9, and poly(ADP-ribose)polymerase (PARP) as primary antibodies at room temperature for one hour. The primary antibodies-bound nitrocellulose membranes were three times washed with PBS-T (phosphate buffered saline, 0.1% Tween-20) and incubated with HRP (Horse Radish Peroxidase)-conjugated secondary antibodies for one hour. The expression of caspase-3, caspase-8, caspase-9, and PARP was detected using ECL reagent (PerkinElmer Life Science, Inc.).

[4] = tested on: caspases in human lung cancer cells; assay: as above; assay type: cell-based; conditions: 10 μg/ml phytosphingosine, FIG. 10
Description: as §2

Dermal irritation test = assay type: in vivo; conditions: rabbits
Text: as §1

[5] = tested on: human lung cancer cells (NCI-H460); assay: Apoptosis test (Sub G1, propidium iodide, flow cytometry); assay type: cell-based
Description: Cancer cells as used in the experiment were human lung cancer cells (NCI-H460, Korean Cell Line Bank), human breast cancer cells (MDA-MB-231, American Type Culture Collection (ATCC)), human uterine cervical cancer cells (HeLa, Korean Cell Line Bank), and blood cancer cells (Jurkat, ATCC). These cancer cells were cultured in RPMI 1640 media containing 10% FBS, penicillin, and streptomycin (GIBCO BRL).
The apoptosis tests were carried out at human lung cancer cells, breast cancer cells, uterine cervical cancer cells, and blood cancer cells as follows:
Phytosphingosine or a derivative thereof was dissolved in DMSO. Samples of the resultant solution of different concentration levels (1, 2, 5, 10, 15, 20 μg/ml) were prepared. According to the following treatment schedule, phytosphingosine treated cancer cells were cultured, washed with PBS (phosphate buffered saline), and fixed with 70% ethanol. The fixed cells were again washed with PBS, suspended in PBS, and 1 mg/ml of RNase was added thereto. Then, DNA was stained with 50 μg/ml of propidium iodide fluorescent dye and the change in the Sub G1 was analyzed by flow cytometry (Becton DICKINSON). The Sub G1, a marker of apoptotic cell death, means DNA distribution lower than that in the G1 phase of cell cycle.
(1-1) In order to determine an anticancer effect of phytosphingosine, 5 ml of 10 μg/ml of phytosphingosine was added to respective dishes containing lung cancer cells, breast cancer cells, uterine cervical cancer cells, and blood cancer cells.
(1-2) In order to examine a correlation of an anticancer effect with the phytosphingosine concentration and post-treatment culture time, each 5 ml of 2, 5, 10, and 15 μg/ml of phytosphingosine was added to respective human uterine cervical cancer cell-containing dishes and human breast cancer cell-containing dishes. In addition, each 5 ml of 5, 10, 15, and 20 μg/ml of phytosphingosine was added to respective human lung cancer cell-containing dishes, and each 5 ml of 1, 5, 10, and 20 μg/ml of phytosphingosine was added to respective human blood cancer cell-containing dishes.
(1-3) An anticancer effect of phytosphingosine derivatives was determined in the same manner as mentioned in (1-1) and (1-2) except using 5 μg/ml of C4PS, C6PS, C8PS, and C12PS.

[6] = 10 μg/ml phytosphingosine, test (1-1), FIG. 1

For `CCCCCCCCCCCCCC[C@@H](O)[C@@H](O)[C@@H](N)CO` [phytosphingosine], the “mutagenicity (Ames test)” value (Ames test) was “do not cause mutation”, the apoptosis ([1]; 5 μg/ml or more, culture of 6 hours or more, FIG. 6) was ≥ 50% and the apoptosis ([1]; 5 μg/ml, at 3-6 hours after treatment) was ≥ 50%. The apoptosis ([1]; 10 μg/ml or more, culture of 3 hours or more, FIG. 6) was ≥ 50%, the apoptotic rate [1, 6] was ≥ 50% and the LD50 [2] was ≥ 2000 mg/kg. For the same compound, the “activities of the caspases” value [3] was “considerably increased”, the “activities of the caspases” value [4] was “considerably increased” and the dermal irritation (Dermal irritation test) was “did not cause dermal damages”. The apoptosis ([5]; 10 μg/ml or more, culture of 6 hours or more, FIG. 5) was 50%, the apoptotic rate [5, 6] was ≥ 50% and the apoptosis ([5]; 10 μg/ml, at 3-6 hours after treatment) was ≥ 50%.
